Where two headings read alike, the source gives them in different places.
Legend:
4TO7 tumors = test: 4TO7 tumor growth in mice treated with Leg-NP-CDDO; assay type: in vivo, BALB/c mice; conditions: 8 i.v. injections
Description: In vivo tumor studies. 4TO7 (5×10^3) cells or MMTV-Neu (1×10^4) primary tumor cells were injected orthotopically into female BALB/c or FVB/NJ mice, respectively. NPs in 200 μl of PBS (about 1.36×10^13 particles) were administered i.v. and tumor dimensions measured using digital microcalipers. Tumor volume was calculated using the formula [(a^2×b)/2], where ‘a’ is the larger of two perpendicular diameters. For recurrence studies, primary tumors were surgically removed and mice re-challenged orthotopically in the contralateral mammary fat pad. Mice were vaccinated 3 times orally at 1 week intervals by gavage with attenuated salmonella typhimuirum (1×10^8 CFU per mouse) transduced with either pNeuTm (provided by Wei-Zen Wei, Karmanos Cancer Center, Detroit, Mich., USA) or empty vector.
Leg-NP-CDDO suppresses growth of murine breast tumors. To evaluate the in vivo effects of Leg-NP-CDDO, BALB/c mice were orthotopically challenged with about 5×10^3 4TO7 tumor cells and 4 days later, treated them with 8 i.v. injections of Leg-NP-CDDO or controls (FIG. 7A).

[1] = assay type: in vivo; conditions: 5 mg/kg doxorubicin i.v.
Description: The dose of doxorubicin for all groups was 5 mg/kg.
Female BALB/c mice were injected orthotopically with 4TO7 breast tumor cells. Tumors were allowed to establish and reach a size of approximately 500 mm^3 prior to treatment. […] Doxorubicin was administered at about 5 mg/kg in 200 μl of PBS for all groups; n=5 mice per group.

4TO7 orthotopic tumors = test: Doxorubicin biodistribution in tumor-bearing mice by fluorescence microscopy; assay type: in vivo; conditions: two i.v. injections, about 24 h after the last injection
Description: Doxorubicin was also loaded into RR-11a^− NPs (NP-Dox) as a control. […] Data represent means±s.e.m. The percentage of the drug uptake concentration was determined by comparing the MFI of RDZ-218, NP-Dox, and Free Dox-treated cells with that of serially diluted doxorubicin; see FIG. 2b. […] Data is shown relative to untreated cells (Control); n=3 wells per group. Data represent means±s.e.m. *p<0.05, **p<0.005. 4TO7 cells were injected into the inguinal mammary fat pad of female BALB/c mice. Tumors were allowed to establish for about 5 d, to a size of approximately 500 mm^3, after which mice were given two i.v. injections with RDZ-218, NP-Dox or Free Dox. Mice were sacrificed about 24 h after the last injection and tissues were isolated and immediately analyzed by fluorescence microscopy to detect distribution of doxorubicin; see FIG. 2d. Tissue sections were also stained with DAPI to visualize cell nuclei; n=2 mice per group; scale bars, 100 μm.

Row | Structure (SMILES) | primary tumor growth (4TO7 tumors) | dose required for effective Stat3 inhibition (STAT-3) [nmol/L] | number of mice surviving, out of a total of 5 ([1]; after treatment 0) | number of mice surviving, out of a total of 5 ([1]; after treatment 1, 24-hour intervals) | doxorubicin fluorescence in tumors (4TO7 orthotopic tumors)
1 | CC1(C)CC[C@]2(C(=O)n3ccnc3)CC[C@]3(C)[C@H](C(=O)C=C4[C@@]5(C)C=C(C#N)C(=O)C(C)(C)[C@@H]5CC[C@]43C)[C@@H]2C1 [CDDO-Im, 1-[2-cyano-3-,12-dioxooleana-1,9(11)-dien-28-oyl]imidazole] | markedly less effective | 100 |  |  | 
2 | COc1cccc2c1C(=O)c1c(O)c3c(c(O)c1C2=O)C[C@@](O)(C(=O)CO)C[C@@H]3O[C@H]1C[C@H](N)[C@H](O)[C@H](C)O1 [Free Dox, doxorubicin] |  |  | 5/5 | 0/5 | strikingly reduced or punctate
